Like-named read-outs stand apart in the source and are kept apart here.
How the values were obtained:
[1] = system: Bacillus subtilis spores; test: Spore suspension test, killing of Bacillus subtilis spores; type: cell-based; settings: for Log Reduction/mL (3 hr, 20° C., pH = 8): Table 4B; for Log Reduction/mL (20° C., 4 hrs): [NaHCO3], 0 mM
[2] = Air in headspace
Protocol: (§1) Experiments were conducted to determine the pressures of several bicarbonate solutions with different bicarbonate concentration, starting pH, and at different temperatures, with air initially in the headspace of the container. Several bicarbonate solutions of different concentration were prepared. The pH of the solutions were adjusted by sparging the solutions with carbon dioxide to achieve a starting pH. About 1030 mL of each solution was introduced into a different 1145 mL glass bottle that was equipped with a thermometer and a pressure sensor. The headspace of each bottle was flushed with air for about one minute and then the bottle was sealed with a stopper. […] The solutions were stirred at about 20° C. until all pressures stabilized. The pressures were recorded. The solutions were then heated in a water bath to 40° C., and then to 55° C., and the pressures were recorded at each of these temperatures. The experiments were conducted at sea level.

[3] = Protocol: A 100 mL round-bottom flask having a capacity of about 135 mL was equipped with a septum, a stirrer bar, and a pressure sensor. […] About 65 mL of a bicarbonate solution having a particular concentration and pH was injected into the flask. Excess pressure was released through a needle on the septum. Carbon dioxide was sparged through the solution to obtain the listed pH and then the solution was sealed in the container with a stopper. The solution was stirred at a temperature of about 20° C. until a stable pressure was achieved. The procedure was repeated for other air partial pressures and bicarbonate solutions. The experiments were conducted at sea level.
[4] = CO2 in headspace
Protocol: as §1
Experiments were conducted to determine the pressures of sealed containers including bicarbonate solutions when the air initially present in the headspace of the containers was replaced with carbon dioxide. […] The experiments were conducted at sea level.

[5] = system: Mycobacterium bovis BCG; settings: at least 0.25% by weight phthalaldehyde as the sole active ingredient, 20° C.; cited from earlier work
[6] = system: Clostridium sporogenes spores; settings: cited from earlier work
[7] = pH range of 3 to 9, single component, per the '999 patent; cited from earlier work
[8] = system: Bacillus subtilis spores; settings: cited from earlier work
[9] = cited from earlier work
[10] = Storage stability of phthalaldehyde solution (loss by Cannizzaro reaction); type: physicochemical; settings: stored about 11 weeks
Source text: Overall, the Cannizzaro reaction generally leads to loss of phthalaldehyde and a decrease in the germicidal efficacy of the solution. While a pH of from 6 to 10, or 7.5 to 9 generally enhances the efficacy of the phthalaldehyde-carbonate solution, the higher or alkaline pH also generally promotes the Cannizzaro reaction. […] However, about 14% of the phthalaldehyde may be lost if the same solution is stored for about 11 weeks at a pH of 9, at room temperature. Even more of the phthalaldehyde may be converted if the storage period is longer, if the temperature is higher, or if the pH is higher than 9.

[11] = Table 1, 20° C., 8 hr exposure, no pH control
[12] = Table 2, 20° C., 8 hr exposure, no pH control
[13] = Table 2, 20° C., 24 hr exposure, no pH control
[14] = Table 3, 20° C., 8 hr exposure, no pH control
[15] = Table 3, 20° C., 24 hr exposure, no pH control
[16] = 0.25% phthalaldehyde as the sole active ingredient, 20° C.
[17] = Table 2, 20° C., 4 hr exposure, no pH control

## [I-].[K+] [1000 mM KI, potassium iodide]
[1]; 20° C.
  Log Reduction/mL (3 hr, 20° C., pH = 8): 0

## [F-].[Na+] [1000 mM NaF, sodium fluoride]
[1]; [11]
  Log Reduction/mL (20° C.) 8 hr: 0.0
[1]; [12]
  Log Reduction/mL (20° C.) 8 hr: 0.0
[1]; [13]
  Log Reduction/mL (20° C.) 24 hr: 0.0

## O=C([O-])O.[Na+] [NaHCO3, sodium bicarbonate]
[2]; pH 7.3, [NaHCO3] 0.02M
  Pressure Above Atmospheric Pressure (mmHg) 20° C.: 72 mmHg
  Pressure Above Atmospheric Pressure (mmHg) 40° C.: 208 mmHg
  Pressure Above Atmospheric Pressure (mmHg) 55° C.: 378 mmHg
[2]; pH 7.4, [NaHCO3] 0.3M
  Pressure Above Atmospheric Pressure (mmHg) 20° C.: 250 mmHg
  Pressure Above Atmospheric Pressure (mmHg) 40° C.: 570 mmHg
  Pressure Above Atmospheric Pressure (mmHg) 55° C.: 862 mmHg
[2]; pH 7.8, [NaHCO3] 0.3M
  Pressure Above Atmospheric Pressure (mmHg) 20° C.: 134 mmHg
  Pressure Above Atmospheric Pressure (mmHg) 40° C.: 322 mmHg
  Pressure Above Atmospheric Pressure (mmHg) 55° C.: 542 mmHg
[3]; initial air 440 / CO2 320 mmHg, NaHCO3 0.3 mole/L, pH 7.4, about 20° C.
  Final Pressure at Equilibrium (mmHg): 758 mmHg
[3]; initial air 674 / CO2 86 mmHg, NaHCO3 0.3 mole/L, pH 8.0, about 20° C.
  Final Pressure at Equilibrium (mmHg): 760 mmHg
[3]; initial air 726 / CO2 34 mmHg, NaHCO3 0.05 mole/L, pH 8.0, about 20° C.
  Final Pressure at Equilibrium (mmHg): 756 mmHg
[3]; initial air 740 / CO2 20 mmHg, NaHCO3 0.05 mole/L, pH 7.4, about 20° C.
  Final Pressure at Equilibrium (mmHg): 758 mmHg
[4]; pH 7.2, [NaHCO3] 0.3M
  Pressure Below (−) or Above (+) Atmospheric Pressure (mmHg) 20° C.: −158 mmHg
  Pressure Below (−) or Above (+) Atmospheric Pressure (mmHg) 40° C.: 202 mmHg
  Pressure Below (−) or Above (+) Atmospheric Pressure (mmHg) 55° C.: 532 mmHg
[4]; pH 7.3, [NaHCO3] 0.02M
  Pressure Below (−) or Above (+) Atmospheric Pressure (mmHg) 20° C.: −508 mmHg
  Pressure Below (−) or Above (+) Atmospheric Pressure (mmHg) 40° C.: −348 mmHg
  Pressure Below (−) or Above (+) Atmospheric Pressure (mmHg) 55° C.: −202 mmHg
[4]; pH 7.4, [NaHCO3] 0.3M
  Pressure Below (−) or Above (+) Atmospheric Pressure (mmHg) 20° C.: −290 mmHg
  Pressure Below (−) or Above (+) Atmospheric Pressure (mmHg) 40° C.: 0 mmHg
  Pressure Below (−) or Above (+) Atmospheric Pressure (mmHg) 55° C.: 274 mmHg
[4]; pH 7.8, [NaHCO3] 0.3M
  Pressure Below (−) or Above (+) Atmospheric Pressure (mmHg) 20° C.: −440 mmHg
  Pressure Below (−) or Above (+) Atmospheric Pressure (mmHg) 40° C.: −246 mmHg
  Pressure Below (−) or Above (+) Atmospheric Pressure (mmHg) 55° C.: −50 mmHg

## O=Cc1ccccc1C=O [0.3% OPA, 1,2-benzenedicarboxaldehyde]
[1]; Table 1, 20° C., 4 hr exposure, no pH control
  Log Reduction/mL (20° C.) 4 hr: 0.5
[1]; [11]
  Log Reduction/mL (20° C.) 8 hr: 0.6
[1]; Table 1, 20° C., 24 hr exposure, no pH control
  Log Reduction/mL (20° C.) 24 hr: 2.9
[1]; [12]
  Log Reduction/mL (20° C.) 8 hr: ~0.6
[1]; [14]
  Log Reduction/mL (20° C.) 8 hr: ~0.6
[1]; [15]
  Log Reduction/mL (20° C.) 24 hr: ~2.9
[1]; Table 4A, pH 7.0, 20° C., 4 hr
  Log Reduction/mL (20° C.) 4 hr: 0.5
[1]; Table 4A, pH 7.0, 20° C., 8 hr
  Log Reduction/mL (20° C.) 8 hr: 0.6
[1]; Table 4A, pH 7.0, 20° C., 24 hr
  Log Reduction/mL (20° C.) 24 hr: 2.9
[1]; Table 7, 20° C., 2 hr
  Log Reductions/mL (20° C.) 2 hr: 0.4
[1]; Table 7, 20° C., 4 hr
  Log Reductions/mL (20° C.) 4 hr: 0.5
[1]; Table 7, 20° C., 6 hr
  Log Reductions/mL (20° C.) 6 hr: 0.7
[1]; Table 7, 20° C., 8 hr
  Log Reductions/mL (20° C.) 8 hr: 0.6
[1]; Table 7, 20° C., 24 hr
  Log Reductions/mL (20° C.) 24 hr: 2.9
[1]; Table 10, 20° C., 4 hr
  Log Reductions/mL (20° C.) 4 hr: 1.5
[1]; Table 10, 20° C., 24 hr
  Log Reductions/mL (20° C.) 24 hr: 2.9
[1]; Table 13, 20° C.
  Log Reduction/mL (20° C., 4 hrs): 0.5
[1]; Table 14, 20° C.
  Log Reduction/mL (20° C., 4 hrs): 0.5
[1]; Table 15, 20° C.
  Log Reduction/mL (20° C., 4 hrs): 0.5
[5]
  time to kill all Mycobacterium bovis BCG in contact with the composition: ≤ 10 min
[6]; [16]
  time for sporicidal activity: 24 h
[6]; 1.0% phthalaldehyde
  time in which sterilization is achieved: 10 h
[7]
  stability of compositions containing phthalaldehyde: excellent stability
[8]; [16]
  time for sporicidal activity: 24 h
[8]; 1.0% phthalaldehyde
  time in which sterilization is achieved: 10 h
[9]
  solubility in water: about 5 % by weight
[10]; pH of 7 or lower, room temperature to about 40° C.
  loss of phthalaldehyde on storage: without a noticeable loss
[10]; pH of 9, room temperature
  phthalaldehyde lost on storage: about 14%

## [F-].[K+] [1000 mM KF, potassium fluoride]
[1]; [14]
  Log Reduction/mL (20° C.) 8 hr: 0.0
[1]; [15]
  Log Reduction/mL (20° C.) 24 hr: 0.1
[1]; 20° C.
  Log Reduction/mL (3 hr, 20° C., pH = 8): 0

## [F-].[Li+] [100 mM LiF, lithium fluoride]
[1]; [15]
  Log Reduction/mL (20° C.) 24 hr: 0.0

## [Br-].[Na+] [1000 mM NaBr, sodium bromide]
[1]; [17]
  Log Reduction/mL (20° C.) 4 hr: 0.0
[1]; [13]
  Log Reduction/mL (20° C.) 24 hr: 0.1

## [Cl-].[Na+] [1000 mM NaCl, sodium chloride]
[1]; [13]
  Log Reduction/mL (20° C.) 24 hr: 0.2

## [I-].[Na+] [1000 mM Nal, sodium iodide]
[1]; [17]
  Log Reduction/mL (20° C.) 4 hr: 0.0
[1]; [12]
  Log Reduction/mL (20° C.) 8 hr: 0.0
[1]; [13]
  Log Reduction/mL (20° C.) 24 hr: 0.1

— patent US20050238732A1, “Carbonated germicide with pressure control” (priority 2003, published 2005)
